Laboratory results as given in ChEMBL document CHEMBL1150096, “Synthesis and evaluation of 3',5'-di-tert-butyl-4'-hydroxyflavones as potential inhibitors of low density lipoprotein (LDL) oxidation” (J Nat Prod, 1995).
pIC50: −log10 of the molar value.

Legend:
[1] = Antioxidant activity assessed as inhibition of copper-induced human LDL oxidation; assay type: functional
[2] = Antioxidant activity assessed as inhibition of endothelial cell-induced human LDL oxidation; assay type: functional, cell-based

## O=c1cc(-c2ccc(O)cc2)oc2cc(O)ccc12
[1]
  pIC50: < 4.00

## CC(C)(C)c1cc(-c2cc(=O)c3ccc(OCC(O)CO)cc3o2)cc(C(C)(C)C)c1O (stereo not drawn)
[1]
  pIC50: 7.00

## COc1ccc2c(=O)cc(-c3cc(C(C)(C)C)c(O)c(C(C)(C)C)c3)oc2c1
[1]
  pIC50: 6.00

## COc1ccc2c(=O)cc(-c3cc(C(C)(C)C)c(OC)c(C(C)(C)C)c3)oc2c1
[1]
  pIC50: < 4.00

## CC(C)(C)c1cc(-c2cc(=O)c3ccc(OCC(=O)O)cc3o2)cc(C(C)(C)C)c1O [listing 1 of 2 here]
[1]
  pIC50: 7.00

## CCCCCOC(=O)COc1ccc2c(=O)cc(-c3cc(C(C)(C)C)c(O)c(C(C)(C)C)c3)oc2c1
[1]
  pIC50: 5.30

## CC(C)(C)c1cc(-c2cc(=O)c3ccc(OCC(=O)N4CCCCC4)cc3o2)cc(C(C)(C)C)c1O
[1]
  pIC50: 5.52

## CC(C)(C)c1cc(-c2cc(=O)c3ccc(OCc4ccc5ccccc5n4)cc3o2)cc(C(C)(C)C)c1O
[1]
  pIC50: 5.52

## CN(C)CCCOc1ccc2c(=O)cc(-c3cc(C(C)(C)C)c(O)c(C(C)(C)C)c3)oc2c1
[1]
  pIC50: 6.15

## CCOC(=O)CCCCOc1ccc2c(=O)cc(-c3cc(C(C)(C)C)c(O)c(C(C)(C)C)c3)oc2c1
[1]
  pIC50: 5.52

## CC(C)(C)c1cc(-c2cc(=O)c3ccc(OCCCS(=O)(=O)O)cc3o2)cc(C(C)(C)C)c1O
[1]
  pIC50: 6.30

## CC(C)(C)c1cc(-c2cc(=O)c3ccccc3o2)cc(C(C)(C)C)c1O
[1]
  pIC50: 5.52
[2]
  pIC50: 5.60

## CC(C)(C)c1cc(-c2cc(=O)c3ccc(OCc4ccc(Cl)cc4)cc3o2)cc(C(C)(C)C)c1O
[1]
  pIC50: 5.15

## CCOC(=O)C(C)(C)Oc1ccc2c(=O)cc(-c3cc(C(C)(C)C)c(O)c(C(C)(C)C)c3)oc2c1
[1]
  pIC50: 5.52
[2]
  pIC50: 6.30

## CCCCCCOc1ccc2c(=O)cc(-c3cc(C(C)(C)C)c(O)c(C(C)(C)C)c3)oc2c1
[1]
  pIC50: 5.30
[2]
  pIC50: 4.30

## CC(C)(C)c1cc(C(=O)Oc2ccc3c(=O)cc(-c4cc(C(C)(C)C)c(O)c(C(C)(C)C)c4)oc3c2)cc(C(C)(C)C)c1O
[1]
  pIC50: 4.52
[2]
  pIC50: 4.15

## CC(C)(C)c1cc(-c2cc(=O)c3ccc(OCC(=O)N4CCN(Cc5ccccc5)CC4)cc3o2)cc(C(C)(C)C)c1O
[1]
  pIC50: 5.52

## CC(C)(C)c1cc(-c2cc(=O)c3ccc(OCC(=O)O)cc3o2)cc(C(C)(C)C)c1O [listing 2 of 2 here]
[1]
  pIC50: 5.52
[2]
  pIC50: 6.30

## CCN(CC)C(=O)COc1ccc2c(=O)cc(-c3cc(C(C)(C)C)c(O)c(C(C)(C)C)c3)oc2c1
[1]
  pIC50: 5.52

## CN(C)CCOc1ccc2c(=O)cc(-c3cc(C(C)(C)C)c(O)c(C(C)(C)C)c3)oc2c1
[1]
  pIC50: 6.15

## CC(C)(C)c1cc(-c2cc(=O)c3ccc(OCCO)cc3o2)cc(C(C)(C)C)c1O
[1]
  pIC50: 5.52

## CCOC(=O)COc1ccc2c(=O)cc(-c3cc(C(C)(C)C)c(O)c(C(C)(C)C)c3)oc2c1
[1]
  pIC50: 5.52
[2]
  pIC50: 6.10

## CC(C)(C)c1cc(-c2cc(=O)c3ccc(OCCN4CCOCC4)cc3o2)cc(C(C)(C)C)c1O
[1]
  pIC50: 6.10
[2]
  pIC50: 6.10

## CC(C)(C)c1cc(-c2cc(=O)c3ccc(O)cc3o2)cc(C(C)(C)C)c1O
[1]
  pIC50: 6.00
[2]
  pIC50: 5.70

## O=c1cc(-c2ccc(O)cc2)oc2cc(O)cc(O)c12 [APIGENIN]
[1]
  pIC50: < 4.00

## Cc1cc(C(C)(C)C)c(O)c(C(C)(C)C)c1 [BUTYLATED HYDROXYTOLUENE]
[1]
  pIC50: 5.52

## CC(C)(Sc1cc(C(C)(C)C)c(O)c(C(C)(C)C)c1)Sc1cc(C(C)(C)C)c(O)c(C(C)(C)C)c1 [PROBUCOL]
[1]
  pIC50: 5.52
[2]
  pIC50: 5.40

## VITAMIN E
[1]
  pIC50: < 4.00
[2]
  pIC50: 5.40
